Reference: ChEMBL document CHEMBL1157034, “Synthesis of 1-benzyl-3-(5-hydroxymethyl-2-furyl)selenolo[3,2-c]pyrazole derivatives as new anticancer agents” (Eur J Med Chem, 2010)

Key:
[1] = tested on: SK-OV-3; test: Antitumor activity against human SKOV3 cells after 48 hrs by MTT assay; type: functional; settings: SK-OV-3, 48 h
[2] = tested on: NCI-H460; test: Antitumor activity against human NCI-H460 cells after 48 hrs by MTT assay; type: functional; settings: NCI-H460, 48 h
[3] = tested on: 786-0; test: Antitumor activity against human 786-0 cells after 48 hrs by MTT assay; type: functional; settings: 786-0, 48 h
[4] = tested on: SK-MEL-2; test: Antitumor activity against human SK-MEL-2 cells after 48 hrs by MTT assay; type: functional; settings: SK-MEL-2, 48 h
[5] = tested on: SF-295; test: Antitumor activity against human SF295 cells after 48 hrs by MTT assay; type: functional; settings: SF-295, 48 h
[6] = tested on: SNB-19; test: Antitumor activity against human SNB19 cells after 48 hrs by MTT assay; type: functional; settings: SNB-19, 48 h
[7] = tested on: NCI-H23; test: Antitumor activity against human NCI-H23 cells after 48 hrs by MTT assay; type: functional; settings: NCI-H23, 48 h
[8] = tested on: CAKI-1; test: Antitumor activity against human Caki1 cells after 48 hrs by MTT assay; type: functional; settings: CAKI-1, 48 h
[9] = tested on: SR; test: Antitumor activity against human SR cells after 48 hrs by MTT assay; type: functional
[10] = Antitumor activity against human MCF7/ADR cells after 48 hrs by MTT assay; type: functional; settings: NCI/ADR-RES
[11] = tested on: UACC-62; test: Antitumor activity against human UACC62 cells after 48 hrs by MTT assay; type: functional; settings: UACC-62, 48 h
[12] = tested on: COLO 205; test: Antitumor activity against human COLO205 cells after 48 hrs by MTT assay; type: functional; settings: COLO 205, 48 h
[13] = tested on: OVCAR-4; test: Antitumor activity against human OVCAR4 cells after 48 hrs by MTT assay; type: functional; settings: OVCAR-4, 48 h
[14] = tested on: MDA-MB-231; test: Antitumor activity against human MDA-MB-231 cells after 48 hrs by MTT assay; type: functional; settings: MDA-MB-231, 48 h
[15] = tested on: BT-549; test: Antitumor activity against human BT549 cells after 48 hrs by MTT assay; type: functional; settings: BT-549, 48 h
[16] = tested on: OVCAR-8; test: Antitumor activity against human OVCAR8 cells after 48 hrs by MTT assay; type: functional; settings: OVCAR-8, 48 h
[17] = tested on: NCI-H322M; test: Antitumor activity against human NCI-H322M cells after 48 hrs by MTT assay; type: functional
[18] = tested on: MOLT-4; test: Antitumor activity against human MOLT4 cells after 48 hrs by MTT assay; type: functional; settings: MOLT-4, 48 h
[19] = tested on: SK-MEL-28; test: Antitumor activity against human SK-MEL-28 cells after 48 hrs by MTT assay; type: functional; settings: SK-MEL-28, 48 h
[20] = tested on: EKVX; test: Antitumor activity against human EKVX cells after 48 hrs by MTT assay; type: functional
[21] = tested on: MDA-MB-435; test: Antitumor activity against human MDA-MB-435 cells after 48 hrs by MTT assay; type: functional; settings: MDA-MB-435, 48 h
[22] = tested on: A549; test: Antitumor activity against human A549 cells after 48 hrs by MTT assay; type: functional; settings: A549, 48 h
[23] = tested on: ACHN; test: Antitumor activity against human ACHN cells after 48 hrs by MTT assay; type: functional, cell-based
[24] = tested on: SNB-75; test: Antitumor activity against human SNB75 cells after 48 hrs by MTT assay; type: functional; settings: SNB-75, 48 h
[25] = tested on: OVCAR-5; test: Antitumor activity against human OVCAR5 cells after 48 hrs by MTT assay; type: functional; settings: OVCAR-5, 48 h
[26] = tested on: KM12; test: Antitumor activity against human KM12 cells after 48 hrs by MTT assay; type: functional; settings: KM12, 48 h
[27] = tested on: HCT-116; test: Antitumor activity against human HCT116 cells after 48 hrs by MTT assay; type: functional; settings: HCT-116, 48 h
[28] = tested on: SN12C; test: Antitumor activity against human SN12C cells after 48 hrs by MTT assay; type: functional
[29] = tested on: HT-29; test: Antitumor activity against human HT-29 cells after 48 hrs by MTT assay; type: functional; settings: HT-29, 48 h
[30] = tested on: U-251; test: Antitumor activity against human U251 cells after 48 hrs by MTT assay; type: functional; settings: U-251, 48 h
[31] = tested on: K562; test: Antitumor activity against human K562 cells after 48 hrs by MTT assay; type: functional; settings: K562, 48 h
[32] = tested on: MCF7; test: Antitumor activity against human MCF7 cells after 48 hrs by MTT assay; type: functional; settings: MCF7, 48 h
[33] = read-out: pLC50 (the source's name) (converted)

Which GI50 ([1]; read-out: pGI50 (converted)) does the source give for OCc1ccc(-c2nn(Cc3ccccc3)c3cc[se]c23)o1 here?
The GI50 was 46.8 µM.

What about the CC50 [1, 33] of the same molecule?
Its CC50 is > 100 µM.

What about the TGI ([1]; read-out: pTGI) of the same molecule?
The TGI was > 100 µM.

And the GI50 [2]?
The GI50 was 28.2 µM.

What about the CC50 [2, 33] of the same molecule?
Its CC50 is > 100 µM.

What about the TGI ([2]; read-out: pTGI) of the same molecule?
The TGI was > 100 µM.

What about the GI50 ([3]; read-out: pGI50 (converted)) of the same molecule?
Its GI50 is 33.1 µM.

And the CC50 [3, 33]?
The CC50 was > 100 µM.

And the TGI ([3]; read-out: pTGI)?
The TGI was > 100 µM.

And the GI50 [4]?
The GI50 was 35.5 µM.

And the CC50 [4, 33]?
The CC50 was > 100 µM.

And the TGI ([4]; read-out: pTGI)?
Its TGI is > 100 µM.

And the GI50 [5]?
Its GI50 is 19.1 µM.

And the CC50 [5, 33]?
Its CC50 is > 100 µM.

What about the TGI ([5]; read-out: pTGI (converted)) of the same molecule?
The TGI was 63.1 µM.

What about the GI50 [6] of the same molecule?
Its GI50 is 49 µM.

What about the CC50 [6, 33] of the same molecule?
Its CC50 is > 100 µM.

What about the TGI ([6]; read-out: pTGI) of the same molecule?
The TGI was > 100 µM.

What about the GI50 [7] of the same molecule?
The GI50 was 42.7 µM.

What about the CC50 [7, 33] of the same molecule?
The CC50 was > 100 µM.

What about the TGI ([7]; read-out: pTGI) of the same molecule?
The TGI was > 100 µM.

What about the CC50 [8, 33] of the same molecule?
The CC50 was > 100 µM.

And the TGI ([8]; read-out: pTGI)?
The TGI was > 100 µM.

What about the GI50 [9] of the same molecule?
The GI50 was 21.9 µM.

What about the CC50 [9, 33] of the same molecule?
The CC50 was > 100 µM.

And the TGI ([9]; read-out: pTGI (converted))?
The TGI was 63.1 µM.

And the CC50 [10, 33]?
The CC50 was > 100 µM.

What about the TGI ([10]; read-out: pTGI) of the same molecule?
The TGI was > 100 µM.

And the GI50 [11]?
Its GI50 is 2.19 µM.

And the CC50 [11, 33]?
The CC50 was > 100 µM.

And the TGI ([11]; read-out: pTGI (converted))?
The TGI was 55 µM.

And the GI50 [12]?
Its GI50 is 29.5 µM.

What about the CC50 [12, 33] of the same molecule?
The CC50 was > 100 µM.

What about the TGI ([12]; read-out: pTGI) of the same molecule?
The TGI was > 100 µM.

What about the GI50 [13] of the same molecule?
The GI50 was 26.3 µM.

And the CC50 [13, 33]?
Its CC50 is > 100 µM.

What about the TGI ([13]; read-out: pTGI) of the same molecule?
Its TGI is > 100 µM.

And the GI50 [14]?
The GI50 was 36.3 µM.

What about the CC50 [14, 33] of the same molecule?
Its CC50 is > 100 µM.

What about the TGI ([14]; read-out: pTGI) of the same molecule?
The TGI was > 100 µM.

And the GI50 [15]?
Its GI50 is 25.1 µM.

And the CC50 [15, 33]?
Its CC50 is > 100 µM.

What about the TGI ([15]; read-out: pTGI (converted)) of the same molecule?
The TGI was 95.5 µM.

What about the GI50 ([16]; read-out: pGI50 (converted)) of the same molecule?
Its GI50 is 55 µM.

What about the CC50 [16, 33] of the same molecule?
Its CC50 is > 100 µM.

And the TGI ([16]; read-out: pTGI)?
The TGI was > 100 µM.

And the GI50 [17]?
The GI50 was 40.7 µM.

And the CC50 [17, 33]?
Its CC50 is > 100 µM.

What about the TGI ([17]; read-out: pTGI) of the same molecule?
The TGI was > 100 µM.

What about the GI50 [18] of the same molecule?
The GI50 was 22.9 µM.

And the CC50 [18, 33]?
The CC50 was > 100 µM.

What about the GI50 [19] of the same molecule?
The GI50 was 28.8 µM.

What about the CC50 [19, 33] of the same molecule?
Its CC50 is > 100 µM.

And the TGI ([19]; read-out: pTGI (converted))?
The TGI was 91.2 µM.

What about the GI50 [20] of the same molecule?
The GI50 was 33.1 µM.

What about the CC50 [20, 33] of the same molecule?
Its CC50 is > 100 µM.

What about the TGI ([20]; read-out: pTGI) of the same molecule?
The TGI was > 100 µM.

And the GI50 [21]?
Its GI50 is 23.4 µM.

And the CC50 [21, 33]?
Its CC50 is > 100 µM.

What about the TGI ([21]; read-out: pTGI (converted)) of the same molecule?
The TGI was 75.9 µM.

What about the GI50 [22] of the same molecule?
Its GI50 is 36.3 µM.

And the CC50 [22, 33]?
Its CC50 is > 100 µM.

And the TGI ([22]; read-out: pTGI)?
The TGI was > 100 µM.

What about the GI50 ([23]; read-out: pGI50 (converted)) of the same molecule?
The GI50 was 25.7 µM.

What about the LC50 ([23]; read-out: pLC50 (converted)) of the same molecule?
Its LC50 is > 100 µM.

And the TGI ([23]; read-out: pTGI)?
The TGI was < 100 µM.

And the GI50 [24]?
The GI50 was 22.4 µM.

What about the CC50 [24, 33] of the same molecule?
Its CC50 is > 100 µM.

And the TGI ([24]; read-out: pTGI (converted))?
The TGI was 100 µM.

And the GI50 ([25]; read-out: pGI50 (converted))?
Its GI50 is 7.41 µM.

What about the CC50 [25, 33] of the same molecule?
The CC50 was > 100 µM.

What about the TGI ([25]; read-out: pTGI) of the same molecule?
The TGI was > 100 µM.

And the GI50 [26]?
The GI50 was 49 µM.

What about the CC50 [26, 33] of the same molecule?
Its CC50 is > 100 µM.

What about the TGI ([26]; read-out: pTGI) of the same molecule?
The TGI was > 100 µM.

What about the GI50 [27] of the same molecule?
Its GI50 is 18.2 µM.

And the CC50 [27, 33]?
Its CC50 is > 100 µM.

What about the TGI ([27]; read-out: pTGI) of the same molecule?
Its TGI is > 100 µM.

And the GI50 ([28]; read-out: pGI50 (converted))?
The GI50 was 43.6 µM.

And the CC50 [28, 33]?
Its CC50 is > 100 µM.

And the TGI ([28]; read-out: pTGI)?
Its TGI is > 100 µM.

And the GI50 [29]?
Its GI50 is 33.9 µM.

And the CC50 [29, 33]?
Its CC50 is > 100 µM.

And the TGI ([29]; read-out: pTGI)?
The TGI was > 100 µM.

What about the GI50 [30] of the same molecule?
The GI50 was 27.5 µM.

And the CC50 [30, 33]?
Its CC50 is > 100 µM.

And the TGI ([30]; read-out: pTGI)?
Its TGI is > 100 µM.

What about the GI50 [31] of the same molecule?
The GI50 was 25.1 µM.

And the CC50 [31, 33]?
The CC50 was > 100 µM.

And the TGI ([31]; read-out: pTGI)?
The TGI was > 100 µM.

What about the GI50 ([32]; read-out: pGI50 (converted)) of the same molecule?
The GI50 was 11.2 µM.

And the CC50 [32, 33]?
The CC50 was > 100 µM.

And the TGI ([32]; read-out: pTGI)?
The TGI was > 100 µM.
